This is an account of results in patent publication US20230212319A1, “NOVEL ANTIGEN BINDING DOMAINS AND SYNTHETIC ANTIGEN RECEPTORS INCORPORATING THE SAME” (University of Southern California, priority 2020, published 2023).

The test system of one experiment is RAJI cells. Nature of the experiment: T cell cytotoxicity against RAJI (Matador assay, Gluc). In kind it is cell-based.
Another experiment relates to Nalm6 cells. Nature of the experiment: Cytokine ELISA (IFNγ, TNFα, IL-2) after co-culture with Nalm6. It is filed as cell-based. As to conditions: T cells expanded 7 days with compound, co-cultured with Nalm6 48 h. (An ELISA detects its analyte on a solid surface through an enzyme-linked reagent.)
Experiment [1] in a line: Flow cytometry of expanded CAR-T/SIR-T cells (Protein L staining, T cell surface markers). In kind it is cell-based, human. The following applies: CAR-T and SIR-T cells expanded 7 days with 1 µM. On the technique in general: In flow cytometry, cells or beads pass a laser one at a time.
Protocol: Cells were expanded in XVIVO medium under standard conditions in the presence of IL2 and CD3/CD28 beads in the absence or presence of Birinapant 1 µM for 7 days and. After 7 days, cells were analyzed by flow cytometry for expression of different cell surface markers.
Cells were pelleted and re-suspended in XVIVO-15 (Lonza) T-cell medium supplemented with PSA, 100 IU/ml recombinant human IL2 and Dynabeads Human T-Activator CD3/CD28 and 5% hAB serum.
The cells were analyzed by flow cytometery for expresson of SIR by staining with Protein L and for presence of different T cell markers.
After 13 days of culture, cells were counted and analyzed by flow cytometry.

Structures are written as SMILES.

Protocol for Nalm6 cells: After 48 h, supernatant was collected and used for measurement of IFNγ, TNFα and IL-2 by ELISA.
Control T cells or SIR-T cells grown in regular flask or G-Rex 6-well plate were cultured with Nalm6-hGLuc 100 K/well/100 ul in 96-well plate U-bottom in XVIVO medium with no additional component. After 48 h co-culture, supernatant was collected and used for ELISA.
The supernatant from the different cell populations were tested for cytokine production upon co-culture with NALM6 cells.

Consider `CC[C@H](NC(=O)[C@H](C)NC)C(=O)N1C[C@@H](O)C[C@H]1Cc1c(-c2[nH]c3cc(F)ccc3c2C[C@@H]2C[C@H](O)CN2C(=O)[C@H](CC)NC(=O)[C@H](C)NC)[nH]c2cc(F)ccc12` [Birinapant], for which the “non-specific killing by uninfected control T cells expanded in presence of SMAC mimetic” value in the experiment on RAJI cells (100 nM or 1 µM, 16 days, RAJI-Gluc, 4 h) is reported as “no effect”. Further, the “cell killing of RAJI cells by SAR-T cells expanded in presence of SMAC mimetic” value in the experiment on RAJI cells (SAR SEQ ID NO: 7348 T cells expanded 16 days with 100 nM or 1 µM, E:T 0.25:1 and 0.5:1, 4 h) was “dose dependent increase”. Further, in the experiment on Nalm6 cells, the IFNγ secretion entry is recorded as “no significant decrease”, the IL2 secretion entry is “no significant decrease” and the TNFα secretion entry was “no significant decrease”. In experiment [1], the CD4 cells entry is listed as “decline”, the CD62L cells entry was “increase” and the “proportion of CD8 cells” value is recorded as “increase”.
